# US9517265B2, “Methods for the prevention and/or treatment of memory impairment” (The Governing Council of the University of Toronto, priority 2010, dated 2016)
# “Also recorded” adds a separate entry of the source. Read-outs that look alike come from different tables or passages of the source.
# Assays:
# α5GABAARs = α5GABAARs (Mus musculus, UniProt P22723+Q8BHJ7); conditions: WT mice, cited from earlier work
# α5GABAA receptors [1] = conditions: 1 mg/kg intraperitoneal; cited from earlier work
# Elevated plus maze = assay type: in vivo, mice
# Source text: Anxiety levels were studied using an elevated plus maze consisting of an acrylic glass apparatus in the shape of a cross (45 cm long×7 cm wide, with a central region of 7 cm×7 cm). Two opposing arms were enclosed with opaque white plastic walls (28 cm high, closed arms), whereas the other two opposing arms were left open (open arms). […] An observer blinded to treatment group recorded the position of each mouse on the maze using Observer software. The time spent in the center and in the open and closed arms were measured over 5 min. In addition, motor activity was quantified to study locomotion.
# [2] = Tail-clamp withdrawal assay (MAC of isoflurane) and recovery of righting reflex; assay type: in vivo, mice; conditions: for time to self-right after the immobilizing dose of isoflurane: L-655,708 or vehicle pretreatment, n=9; for immobilizing dose (MAC value) of isoflurane: tail-clamp, mice pretreated with L-655,708 0.7 mg/kg s.c. (row L-655,708) or vehicle (row isoflurane), n=17
# Procedure: The MAC value was calculated as the mean value of these two concentrations.
# α5GABAA receptors [3] = molecular target: T1, α5GABAA receptors (Mus musculus, UniProt P22723+Q8BHJ7); assay: Fear conditioning (contextual and cued) after isoflurane anesthesia; assay type: in vivo, C57BL6/J mice; parameters: from tissue; host or cells: brain of living mice (behavioural tests); conditions: for effect on memory deficit after isoflurane (in words): L-655,708 given before isoflurane; for freezing score to context, short-term memory: tested 30 min after training; for freezing score to auditory tone, short-term memory: tested 90 min after conditioning; for freezing score to auditory tone, long-term memory / freezing score to context, long-term memory: tested 2 days after conditioning
# T1 sequence (Q8BHJ7 32-463 limits assumed): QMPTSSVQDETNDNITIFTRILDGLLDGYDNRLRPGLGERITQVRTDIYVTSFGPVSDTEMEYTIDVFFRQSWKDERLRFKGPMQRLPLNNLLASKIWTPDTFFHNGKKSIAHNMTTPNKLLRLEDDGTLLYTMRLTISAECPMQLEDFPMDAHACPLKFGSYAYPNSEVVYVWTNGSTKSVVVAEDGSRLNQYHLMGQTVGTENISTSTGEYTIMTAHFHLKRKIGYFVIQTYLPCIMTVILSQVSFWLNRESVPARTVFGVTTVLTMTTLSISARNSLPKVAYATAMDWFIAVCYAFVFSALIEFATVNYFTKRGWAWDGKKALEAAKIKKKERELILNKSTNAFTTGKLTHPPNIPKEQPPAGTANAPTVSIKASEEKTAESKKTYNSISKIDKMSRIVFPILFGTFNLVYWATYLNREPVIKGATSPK
# T1 sequence (P63080 26-473 partner): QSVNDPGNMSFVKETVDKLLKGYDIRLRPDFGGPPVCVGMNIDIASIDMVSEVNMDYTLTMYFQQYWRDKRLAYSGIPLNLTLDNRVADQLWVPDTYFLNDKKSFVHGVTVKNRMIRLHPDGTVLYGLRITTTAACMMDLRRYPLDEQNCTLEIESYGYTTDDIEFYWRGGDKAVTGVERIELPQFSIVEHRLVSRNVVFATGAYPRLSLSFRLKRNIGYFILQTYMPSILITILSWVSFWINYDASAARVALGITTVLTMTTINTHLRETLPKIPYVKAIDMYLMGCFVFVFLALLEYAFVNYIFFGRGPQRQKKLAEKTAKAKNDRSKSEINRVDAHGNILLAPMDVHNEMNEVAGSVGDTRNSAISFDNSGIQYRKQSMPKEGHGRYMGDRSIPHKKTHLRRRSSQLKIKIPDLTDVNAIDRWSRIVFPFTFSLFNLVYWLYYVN
# T1 sequence (P22723 39-474): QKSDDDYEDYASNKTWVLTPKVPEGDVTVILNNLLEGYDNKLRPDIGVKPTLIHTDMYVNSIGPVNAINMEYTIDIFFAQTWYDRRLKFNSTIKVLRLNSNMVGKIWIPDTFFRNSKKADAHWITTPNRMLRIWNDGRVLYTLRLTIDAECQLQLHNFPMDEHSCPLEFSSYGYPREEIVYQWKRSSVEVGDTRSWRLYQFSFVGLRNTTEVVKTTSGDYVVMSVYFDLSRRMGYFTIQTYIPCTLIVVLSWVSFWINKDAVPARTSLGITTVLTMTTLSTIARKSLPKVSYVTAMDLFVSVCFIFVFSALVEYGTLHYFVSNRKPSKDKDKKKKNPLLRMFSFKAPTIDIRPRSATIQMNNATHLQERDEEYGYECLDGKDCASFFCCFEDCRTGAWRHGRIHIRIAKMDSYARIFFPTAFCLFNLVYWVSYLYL
# Procedure: To prevent hypothermia during anesthesia, the floor of the chamber was warmed with a heating blanket. […] The mouse was then either returned to its home cage and allowed to recover for 24 h (24-h groups) or taken to a holding cage in an adjacent room (1-h groups). For continuity and to ensure that the experimenter who performed the fear-conditioning studies was blinded to the treatment group, mice that were allowed to recover for 24 h were placed back in a heated for 45 min before the behavioral experiments. FIGS. 1A and 1B summarize the time course of the experimental procedures. In FIG. 1A, each stage of the experimental paradigm is represented by chronological boxes and cartoons. Relative time is indicated below the boxes (t=0, start of fear conditioning training). The duration of each stage is inset at the bottom left. […] Four groups of isoflurane-treated subjects were used (1 h recovery+L-655,708; 1 h recovery+vehicle; 24 h recovery+L-655,708; 24 h recovery+vehicle). Two oxygen-control group was used (1 h recovery+L-655,708; 1 h recovery+vehicle). 10 min prior to fear conditioning, subjects were examined in the elevated plus maze (EPM). Subjects were tested for short-term memory (STM) and long-term memory (LTM) of the context and tone.
# Testing of memory function was performed using two fear-conditioning paradigms. These tests study the ability of mice to learn and remember an association between an aversive stimulus (foot shock) and non-aversive or neutral stimuli (environmental context or an auditory cue). […] Each mouse was introduced to the fear conditioning chamber (50 cm wide×15 cm deep×15 cm high, Process Control Fear Conditioning Monitor GmbH 303410, Technical & Scientific Equipment Systems Inc., Chesterfield, Mo.). The chamber was illuminated with an interior overhead light (50 lx) and was equipped with a stainless steel grid floor connected to a constant-current shock generator. Each mouse was allowed to explore the chamber for 3 min before presentation of a pulsating tone (80 dB, 3600 Hz) which persisted for 30 s. The tone was followed immediately by a mild foot shock (0.7 mA for 0.5 s). The mouse was allowed to explore the chamber for a further 30 s after the shock to study post-shock freezing.
# Freezing was scored using Observer software (Noldus Information Technology, Wagoningen, The Netherlands), by an experimenter who was blinded to the treatment groups. Before each new training session, the chamber was cleaned with 70% ethanol to mask and eliminate odors from the previous mouse.
# Short-term memory for contextual learning was probed 30 min after training by re-exposed the mice to the same fear conditioning chamber for […]. Long-term memory for contextual learning was studied 2 days (48 h) after conditioning by re-exposing the mice to the conditioning chamber. Short-term memory for cued learning was determined 90 min after training by first allowing the mice to explore a modified chamber scented with 5% acetic acid and containing a plastic floor and cardboard walls and then after 3 min, re-presenting the tone (2-Hz pulsating tone, 80 dB, 3600 Hz) for 3 min. Non-specific freezing was measured during the exploration of the novel chamber prior to presenting the tone. Freezing scores to study recall were measured during presentation of the tone. Long-term memory for cued learning was determined by introducing the mice into the modified chamber and presenting the tone 2 days (48 h) after conditioning.
# α5GABAA receptors [4] = molecular target: T1, α5GABAA receptors; conditions: for memory performance of Gabra5−/− mice (in words) / effect of the anesthetic on recognition memory, wild-type mice (in words): 24 h after anesthesia
# [5] = Balance beam and tail flick 1 h after isoflurane; assay type: in vivo, mice; conditions: 1 h after isoflurane or vehicle
# Procedure: Mice were gently held by the scruff and allowed free movement of the tail. The tip of the tail was inserted to about 1 cm depth into a beaker of water (49° C.). The latency for the mouse to remove its tail from the water was recorded and used as an indication of nociception. […] Indicators of motor coordination and mobility include the time for the mice to spontaneously cross the beam, and the number of times the hindfoot slipped off the beam. Average values of three repetitions for each mouse were reported.
# [6] = 1 h Iso, vehicle (row isoflurane) or L-655,708
# [7] = 24 h Iso, vehicle (row isoflurane) or L-655,708
# [8] = trained 1 h after isoflurane (1 MAC, 1 h), L-655,708 0.7 mg/kg s.c. or vehicle 10 min before isoflurane
# [9] = trained 24 h after isoflurane, L-655,708 0.7 mg/kg s.c. or vehicle before isoflurane
# [10] = high-dose experiment: isoflurane + vehicle injection (row isoflurane) or + L-655,708 0.7 mg/kg 30 min before training
# α5GABAARs, sequence (Q8BHJ7 32-463 limits assumed): as the sequence (Q8BHJ7 32-463 limits assumed) above
# α5GABAARs, sequence (P63080 26-473 partner): as the sequence (P63080 26-473 partner) above
# α5GABAARs, sequence (P22723 39-474): as the sequence (P22723 39-474) above
smiles,measurement,setting,value
"CCOC(=O)c1ncn2c1[C@@H]1CCCN1C(=O)c1cc(OC)ccc1-2 [L-655,708]","trace fear memory, freezing scores (in words)","α5GABAARs; L-655,708 1 mg/kg i.p. 30 minutes prior to training",demonstrated increased freezing scores
same,"contextual fear memory, freezing score (in words)","α5GABAARs; etomidate or etomidate plus L-655,708 30 min prior to training",prevented the etomidate-induced memory deficit
same,receptor occupancy of the α5GABAA receptor,α5GABAA receptors [1],64%
same,total number of visits to the middle area,Elevated plus maze; [6],17.3±7.0
same,total number of visits to the middle area,Elevated plus maze; 1 h O2,19.5±8.5
same,total number of visits to the middle area,Elevated plus maze; [7],13.6±7.1
same,time to self-right after the immobilizing dose of isoflurane,[2],151 ± 27 s
same,effect on MAC of isoflurane (in words),"[2]; mouse, in vivo",did not change the MAC value for isoflurane
same,immobilizing dose (MAC value) of isoflurane,[2],1.33±0.02
same,effect on memory deficit after isoflurane (in words),α5GABAA receptors [3],"completely prevented memory deficits; also recorded: completely reversed the short-term memory deficit for contextual learning; also recorded: prevented the short-term memory deficit to the tone in mice trained 1 h after isoflurane; also recorded: had no effect on auditory recall in mice conditioned 24 h after exposure to isoflurane; also recorded: completely reversed by pretreatment with L-655,708; also recorded: did not reverse the long-term deficit in cued fear conditioning; also recorded: The impairment was prevented by pre-emptive treatment with L-655,708"
same,effect on memory deficit after isoflurane (in words),α5GABAA receptors [3]; listed as L-655-708,had no effect on freezing in the oxygen-treated mice
same,"freezing score to context, short-term memory",α5GABAA receptors [3]; oxygen-treated mice,80.1±6.4%
same,"freezing score to context, short-term memory",α5GABAA receptors [3]; [8],75.5±8.6%
same,"freezing score to context, short-term memory",α5GABAA receptors [3]; [9],81.9±5.6%
same,"freezing score to auditory tone, short-term memory",α5GABAA receptors [3]; trained 1 h after isoflurane,49.1+8.8%
same,"freezing score to auditory tone, long-term memory",α5GABAA receptors [3]; trained 1 h after isoflurane,41.7±7.3%
same,"freezing score to context, long-term memory",α5GABAA receptors [3]; trained 1 h after isoflurane,72.3±4.9%
same,"freezing score to context, long-term memory",α5GABAA receptors [3]; trained 24 h after isoflurane,75.2±8.3%
same,memory performance of Gabra5−/− mice (in words),α5GABAA receptors [4],did not affect the memory performance of Gabra5−/− mice
same,"discrimination ratio, short-term memory","α5GABAA receptors [4]; Gabra5−/− mice, L-655,708 0.70 mg/kg i.p. 10 min before isoflurane",0.62±0.05
same,"discrimination ratio, short-term memory","α5GABAA receptors [4]; Gabra5−/− mice, L-655,708 0.70 mg/kg i.p. 10 min before vehicle gas",0.64±0.05
same,effect on isoflurane-induced recognition memory deficit (in words),"α5GABAA receptors [4]; L-655,708 0.35 mg/kg 24 h after isoflurane, 30 min before training","restored normal memory performance in groups that were exposed to isoflurane; also recorded: fully reversed short-term memory deficits; also recorded: completely reversed the deficit in recognition memory; also recorded: reverses memory deficits when administered 24 h after exposure to the anesthetic isoflurane; also recorded: fully reversed by L-655,708"
same,effect on isoflurane-induced recognition memory deficit (in words),"α5GABAA receptors [4]; L-655,708 0.7 mg/kg 24 h after isoflurane, 30 min before training",failed to reverse the memory deficit in isoflurane-treated mice
same,prevention of recognition memory deficit (in words),"α5GABAA receptors [4]; L-655,708 0.7 mg/kg before isoflurane",preferred the novel object
same,"discrimination ratio, short-term memory",α5GABAA receptors [4]; [10],0.54±0.05
same,"discrimination ratio, short-term memory","α5GABAA receptors [4]; isoflurane + L-655,708 0.35 mg/kg i.p. 23.5 h after anesthesia, 30 min before training, n=11",0.68±0.03
same,exploratory behavior during training (in words),"α5GABAA receptors [4]; mouse, in vivo",did not influence the amount of time that mice spent with both objects
FC(F)OC(Cl)C(F)(F)F (centres unmarked) [isoflurane],balance beam crossing times and foot slips (in words),[5],No differences were observed between treatment groups
same,latency to tail flick (in words),[5],No differences were detected in the latency to tail flick
same,total number of visits to the middle area,Elevated plus maze; [6],19.9±4.6
same,total number of visits to the middle area,Elevated plus maze; [7],18.1±5.3
same,anxiety in the elevated plus maze (in words),"Elevated plus maze; mouse, in vivo","neither isoflurane, nor L-655,708 had any effect on anxiety on their own"
same,time to self-right after the immobilizing dose of isoflurane,[2],153 ± 26 s
same,immobilizing dose (MAC value) of isoflurane,[2],1.33±0.02
same,"mean freezing score, short-term contextual fear conditioning","α5GABAA receptors [3]; independent cohort of 14 mice, 24 h after isoflurane",32.8%
same,"freezing score to context, short-term memory",α5GABAA receptors [3]; [8],54.6±5.9%
same,"freezing score to context, short-term memory",α5GABAA receptors [3]; [9],51.6±8.0%
same,"freezing score to auditory tone, short-term memory",α5GABAA receptors [3]; trained 1 h after isoflurane,35.7±6.43%
same,"freezing score to auditory tone, short-term memory",α5GABAA receptors [3]; trained 24 h after isoflurane,49.1+8.8%
same,"freezing score to auditory tone, long-term memory",α5GABAA receptors [3]; trained 1 h after isoflurane,21.8±23.1%
same,"freezing score to context, long-term memory",α5GABAA receptors [3]; trained 1 h after isoflurane,36.4±26.9%
same,"freezing score to auditory tone, long-term memory",α5GABAA receptors [3]; trained 24 h after isoflurane,41.2±31.2%
same,"freezing score to context, long-term memory",α5GABAA receptors [3]; trained 24 h after isoflurane,48.9±8.6%
same,"effect of the anesthetic on recognition memory, wild-type mice (in words)",α5GABAA receptors [4],failed to recognize the familiar object and exhibited no preference for the novel object
same,memory performance of Gabra5−/− mice (in words),α5GABAA receptors [4],did not cause significant impairment of memory performance in Gabra5−/− mice
same,"effect of the anesthetic on recognition memory, wild-type mice (in words)",α5GABAA receptors [4]; listed as Isoflurane,demonstrated normal working memory
same,time spent exploring both objects during training,α5GABAA receptors [4]; 72 h after isoflurane,46.65 ± 6.57 s
same,"discrimination ratio, short-term memory","α5GABAA receptors [4]; 72 h after isoflurane, n=10",0.60±0.04
same,"discrimination ratio, short-term memory","α5GABAA receptors [4]; Gabra5−/− mice, 24 h after isoflurane",0.62±0.05
same,time by which short-term memory deficits resolved,α5GABAA receptors [4]; after isoflurane 1.3% 1 h,≤ 72 h
same,"discrimination ratio, short-term memory",α5GABAA receptors [4]; [10],0.54±0.04
same,"discrimination ratio, short-term memory","α5GABAA receptors [4]; prevention experiment, wild-type, isoflurane + vehicle injection, n=11",0.53±0.05
same,time spent exploring sample objects during training,"α5GABAA receptors [4]; short-term memory experiment, 24 h after isoflurane",62.3 ± 9.44 s
same,"discrimination ratio, working memory","α5GABAA receptors [4]; tested 1 min after training, 24 h after isoflurane 1.3% 1 h, n=10",0.67±0.04
same,"discrimination ratio, short-term memory","α5GABAA receptors [4]; tested 1 h after training, 24 h after isoflurane, vehicle injection, wild-type, n=31",0.51±0.03
same,time spent exploring both sample objects during training,"α5GABAA receptors [4]; working memory experiment, 24 h after isoflurane",49.28 ± 9.60 s
